Test [1] concerns the target T1, hAR (human androgen receptor, baculovirus/Sf9 generated extracts) (Homo sapiens, UniProt P10275).
T1 construct: made in house; host or cells: baculovirus/Sf9 insect cells (crude extract)
T1 sequence (P10275 1-920): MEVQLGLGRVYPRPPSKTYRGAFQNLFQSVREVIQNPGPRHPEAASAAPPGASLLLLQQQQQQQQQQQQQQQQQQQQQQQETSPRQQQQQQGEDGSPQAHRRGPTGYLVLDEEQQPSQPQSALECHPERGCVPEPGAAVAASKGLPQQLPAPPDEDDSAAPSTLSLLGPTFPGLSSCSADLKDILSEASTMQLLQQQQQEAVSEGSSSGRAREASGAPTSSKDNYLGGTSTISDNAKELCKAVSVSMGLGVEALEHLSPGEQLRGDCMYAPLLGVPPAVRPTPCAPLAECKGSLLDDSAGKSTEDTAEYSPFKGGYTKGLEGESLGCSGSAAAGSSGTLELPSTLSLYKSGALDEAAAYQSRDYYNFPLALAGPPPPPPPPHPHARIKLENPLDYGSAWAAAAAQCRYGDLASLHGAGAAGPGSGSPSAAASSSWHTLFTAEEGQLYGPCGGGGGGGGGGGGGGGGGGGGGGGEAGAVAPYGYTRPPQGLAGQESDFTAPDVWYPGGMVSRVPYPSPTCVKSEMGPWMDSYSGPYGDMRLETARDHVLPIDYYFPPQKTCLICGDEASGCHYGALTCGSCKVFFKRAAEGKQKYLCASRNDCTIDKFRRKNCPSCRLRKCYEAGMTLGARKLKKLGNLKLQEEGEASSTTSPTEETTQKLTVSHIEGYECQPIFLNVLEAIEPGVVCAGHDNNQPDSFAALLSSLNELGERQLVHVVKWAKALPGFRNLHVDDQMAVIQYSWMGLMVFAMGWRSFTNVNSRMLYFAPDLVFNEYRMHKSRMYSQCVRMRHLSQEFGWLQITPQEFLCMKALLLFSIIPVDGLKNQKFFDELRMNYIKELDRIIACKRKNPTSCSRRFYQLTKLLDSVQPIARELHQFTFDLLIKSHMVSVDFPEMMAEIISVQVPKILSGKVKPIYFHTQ
As to the kind of experiment: AR Binding Assay (competitive binding with 3H-DHT tracer). The following applies: 1 nM 3H-DHT, one hour at 4° C., mean of multiple tests. The procedure: The compounds of Formula I have affinity for the androgen receptor. […] The description below describes how the assay was carried out.
Competitive binding analysis was performed on baculovirus/Sf9 generated hAR extracts in the presence or absence of different concentrations of test agent and a fixed concentration of ^3H-dihydrotestosterone (^3H-DHT) as tracer. This binding assay method is a modification of a protocol previously described (Liao S., et. al., J. Steroid Biochem., 20:11-17, 1984). Briefly, progressively decreasing concentrations of compounds are incubated in the presence of hAR extract (Chang et al., P.N.A.S., Vol. 89, pp. 5546-5950, 1992), hydroxylapatite, and 1 nM ^3H-DHT for one hour at 4° C. Subsequently, the binding reactions are washed three times to completely remove excess unbound ^3H-DHT. hAR bound ^3H-DHT levels are determined in the presence of compounds (i.e. competitive binding) and compared to levels bound when no competitor is present (i.e. maximum binding). Compound binding affinity to the hAR is expressed as the concentration of compound at which one half of the maximum binding is inhibited. Table II below provides the results that were obtained for selected compounds (reported data is the mean of multiple tests as shown below).

Test [2] has as its target T2, androgen receptor in MDA-MB453-MMTV clone 54-19 cells (Homo sapiens, UniProt P10275).
T2 sequence (P10275 1-920 Q868H): T1 sequence (P10275 1-920) with Q868H
Briefly: AR Antagonist Cell Assay (MMTV-luciferase reporter, DHT-induced). Type of test: cell-based. The following applies: MDA-MB453-MMTV clone 54-19, 100 pM DHT, 17 hr; mean of multiple tests. The procedure: The compounds ability to antagonize the effects of androgen on the androgen receptor were determined in a whole cell assay as described immediately below.
Cell line: MDA-MB453-MMTV clone 54-19. This cell line is a stable transfected cell line with MDA-MB453 cell background (a human breast tumor cell line expressing androgen receptor). A MMTV minimal promoter containing ARE was first cloned in front of a firefly luciferase reporter gene. Then the cascade was cloned into transfection vector pUV120puro. Electroporation method was used for transfecting MDA-MB-453 cell. Puromycin resistant stable cell line was selected.
Culture medium: DMEM (high glucose, Gibco cat #: 11960-044), 10% FBS, and 1% L-glutamine
Plating medium: DMEM (phenol red free), 10% charcoal treated HyClone serum, 1% L-glutamine
Assay medium: DMEM (phenol red free), 1% charcoal treated HyClone serum, 1% L-glutamine, and 1% penicillin/streptomycin
3× luciferase buffer: 2% beta-mercaptoethanol, 0.6% ATP, 0.0135% luciferine in cell lysis buffer
Cells are maintained in culture medium, splitting cells when they reach 80-90% confluence. To test compounds, 10,000 cells/well are plated to opaque 96 cell culture plate in 100 ul/well plating medium, culture for overnight at 37° C. in cell culture incubator. Carefully remove plating medium, then add 80 ul/well of pre-warmed assay medium, add 10 ul/well testing compound (final concentration at) 1000 nM, 200 nM, 40 nM, 8 nM, 1.6 nM, and 0.32 nM), incubate at 37° C. for 30 minutes. Add 10 ul/well freshly prepared DHT (final concentration at 100 pM) to each well, incubate at 37° C. for 17 hr (overnight). Add 50 ul/well 3× luciferase buffer, incubate at room temperature for 5 minutes, then count on Luminometer. The fold induction over background by 100 pM DHT in the absence of testing compounds is standardized as 100% and experimental result is expressed as percentage of inhibition by testing compounds.
The results are reported as the mean of multiple tests as described below (the numbers of tests are indicated in the footnote). ND denotes that the compound was not tested.
(Reporter assays use an easily measured gene product as a stand-in for the process of interest.)

The mark [3] stands for this setting: hAR extract, read-out: AR Binding IC50.

SMILES strings stand for the structures. Positions count from the first letter of the chain named. Read-outs that look alike come from different tables or passages of the source.

In the case of `CCC(Oc1ccc(C#N)c(C(F)(F)F)c1)c1cccc(O)c1` (single isomer, unassigned; (+)) [Example 12, (+)4-[1-(3-Hydroxyphenyl)propoxy]-2-(trifluoromethyl)benzonitrile], the IC50 in test [1] (AR Binding IC50, hAR extract) is 19 nM; in test [2], above 1000 nM.

For `Cc1cccc(C(C)Oc2ccc(C#N)c(Cl)c2)c1` (centres unmarked) [Example 60, 2-Chloro-4-(1-m-tolyl-ethoxy)-benzonitrile], the IC50 in test [1] (AR Binding IC50, hAR extract) was 74 nM; in test [2], above 1000 nM.

Regarding `CC(C)CC(Oc1ccc(C#N)c(C(F)(F)F)c1)c1cccc(O)c1` (racemic) [Example 20, 4-[1-(3-Hydroxyphenyl)-3-methylbutoxy]-2-(trifluoromethyl)benzonitrile], the IC50 in test [1] (AR Binding IC50, hAR extract) came out at 183 nM; in test [2] it was 40 nM.

Consider `Cc1cccc(COc2ccc(C#N)c(Cl)c2)c1` [Example 64, 2-Chloro-4-(3-methyl-benzyloxy)-benzonitrile], for which the IC50 is 74 nM in test [1] (AR Binding IC50, hAR extract) and above 1000 nM in test [2].

With `COC(=O)c1ccc(C(C)Oc2ccc(C#N)c(C(F)(F)F)c2)cc1` (racemic) [Example 29, (±)-4-[1-(4-Cyano-3-trifluoromethyl-phenoxy)-ethyl]-benzoic Acid Methyl Ester], the IC50 in test [1] (setting [3]) is 102 nM; in test [2], 132 nM.

Turning to `CCC(Oc1ccc(C#N)c(C(F)(F)F)c1)c1cccnc1` (centres unmarked) [Example 90, 4-(1-Pyridin-3-yl-propoxy)-2-trifluoromethyl-benzonitrile], the IC50 was found to be 167 nM in test [1] (setting [3]) and 142 nM in test [2].

For `CC(Oc1ccc(C#N)c(C(F)(F)F)c1)c1ccccn1` (racemic) [Example 35, 4-(1-Pyridin-2-yl-ethoxy)-2-trifluoromethyl-benzonitrile], the IC50 in test [1] (AR Binding IC50, hAR extract) is 180 nM; in test [2], 254 nM.

With `CCOc1ccccc1COc1ccc(C#N)c(Cl)c1` [Example 68, 2-Chloro-4-(2-ethoxy-benzyloxy)-benzonitrile], the results for the IC50 in test [1] (setting [3]) and in test [2] were 213 nM and above 1000 nM, respectively.

For the molecule `C=CCC(Oc1ccc(C#N)c(C(F)(F)F)c1)c1cccc(O)c1` (single isomer, unassigned; (+)) [Example 18, (+)4-{[1-(3-Hydroxyphenyl)but-3-enyl]oxy}-2-(trifluoromethyl)benzonitrile], the IC50 in test [1] (AR Binding IC50, hAR extract) amounted to 17 nM; in test [2], 86 nM.

Turning to `CC(Oc1ccc(C#N)c(C(F)(F)F)c1)c1ccccc1Cl` (centres unmarked) [Example 22, 4-[1-(2-Chloro-phenyl)-ethoxy]-2-trifluoromethyl-benzonitrile], the values for the IC50 in test [1] (setting [3]) and in test [2] were 108 nM and 102 nM, respectively.

With `CCC(Oc1ccc(C#N)c(C(F)(F)F)c1)c1cccc(O)c1` (single isomer, unassigned; (-)) [Example 13, (−)4-[1-(3-Hydroxyphenyl)propoxy]-2-(trifluoromethyl)benzonitrile], the IC50 in test [1] (AR Binding IC50, hAR extract) turned out to be 23 nM; in test [2] it was 31 nM.

In the case of `N#Cc1ccc(OCC2COc3ccccc3O2)cc1Cl` (centres unmarked) [Example 69, 2-Chloro-4-(2,3-dihydro-benzo[1,4]dioxin-2-ylmethoxy)-benzonitrile], the IC50 was 108 nM in test [1] (setting [3]) and above 1000 nM in test [2].

`C[C@@H](Oc1ccc(C#N)c(C(F)(F)F)c1)c1ccccn1` [Example 36, (R)-(+)-4-(1-Pyridin-2-yl-ethoxy)-2-trifluoromethyl-benzonitrile]: the concentration for half-maximal inhibition (IC50) in test [1] (AR Binding IC50, hAR extract) was 54 nM; in test [2], 28 nM.

As to `COc1cncc(C(C)Oc2ccc(C#N)c(C(F)(F)F)c2)c1` (centres unmarked) [Example 72, 4-[1-(5-Methoxypyridin-3-yl)ethoxy]-2-(trifluoromethyl)benzonitrile], the IC50 in test [1] (setting [3]) stood at 203 nM; in test [2], 441 nM.

For `CC(Oc1ccc(C#N)c(C(F)(F)F)c1)c1cncc(O)c1` (centres unmarked) [Example 73, 4-[1-(5-Hydroxypyridin-3-yl)ethoxy]-2-(trifluoromethyl)benzonitrile], the IC50 in test [1] (setting [3]) was found to be 110 nM; in test [2] it was 70 nM.

Consider `C=CC(Oc1ccc(C#N)c(C(F)(F)F)c1)c1cccc(O)c1` (centres unmarked) [Example 16, 4-{[1-(3-Hydroxyphenyl)prop-2-enyl]oxy}-2-(trifluoromethyl)benzonitrile], for which the IC50 in test [1] (AR Binding IC50, hAR extract) is 11 nM; in test [2], 416 nM.

Consider `CC(Oc1ccc(C#N)c(C(F)(F)F)c1)c1ccccc1` (centres unmarked) [Example 53, 4-(1-Phenyl-ethoxy)-2-trifluoromethyl-benzonitrile], for which the IC50 in test [1] (AR Binding IC50, hAR extract) came to 8 nM; in test [2] it was 55 nM.

With `N#Cc1ccc(OCc2ccccc2)cc1Cl` [Example 59, 4-Benzyloxy-2-chloro-benzonitrile], the IC50 amounted to 38 nM in test [1] (setting [3]) and 108 nM in test [2].

With `CC(C)(Oc1ccc(C#N)c(Cl)c1)c1ccccc1` [Example 70, 2-Chloro-4-(1-methyl-1-phenyl-ethoxy)-benzonitrile], the IC50 is 53 nM in test [1] (AR Binding IC50, hAR extract) and above 1000 nM in test [2].

In general, IC50 refers to the point on the concentration scale where inhibition reaches its midpoint.

Source of the values: patent publication US20090170886A1 (Pfizer Inc, priority 2005, published 2009).
